From patent US10966996B2, “Glechoma longitube extract, preparation method for same, and use thereof in sugar reduction, weight loss, and lipid reduction” (SHANGHAI INSTITUTE OF MATERIA MEDICA CHINESE ACADEMY OF …, priority 2014, dated 2021) come the findings set out here.

Each structure is given as a SMILES string. “Also recorded” adds a separate entry of the source.

For data set [1], the system named is db/db mice. Kind of data set: long term administration of Compound I in db/db mice. It is filed as in vivo. The following applies: 50 mg/kg once a day. On the procedure:
After the end of the acute experiment, each group of mice undergone long term administration experiment following the grouping in below: equal volume of distilled water was given to control group of mice; Compound I at the dosage of 50 mg/kg was given to administration group; DDP4 inhibitor, Sitagliptin, at 10 mg/kg was intragastric administrated to positive control group. Dosage volume was 10 ml/kg, once a day for 4 weeks. Weight, blood glucose, and dietary change of the mice were monitored every week. The improvement of diabetic symptom of spontaneous diabetes mellitus type 2 model db/db mice by long term administration of Compound I was evaluated.

Data set [2] concerns db/db mice. Kind of data set: acute oral glucose tolerance in db/db mice. In kind it is in vivo. The following applies: 100 mg/kg. As to the method:
Oral glucose tolerance test (OGTT) method: 8-week old male C57BL/KsJ mice (Shanghai Slac Laboratory Animal Company), 8 for each group, weight of 20±2 g, were fed according to SPF grade operation procedure and fasted for 16 hours prior to experiment. Blood was collected from tail vein of each group of mice prior to experiment. Blood glucose concentrations were measured using Roche ACCU-CHEK glucometer and recorded as time 0. Different concentrations of the compound were intragastric administrated to each administration group of mice, respectively. Equal volume of distilled water was given to control group of mice. The dosage volume was 10 ml/kg. Half an hour after administration, 5 g/kg glucose was intragastric administrated to each group of mice. Blood glucose concentrations of each group of mice were measured and recorded at 20 mins, 40 mins, and 80 mins after the intragastric administration. OGTT curves were recorded. Areas under the curves (AUC) were calibrated with the data in blood glucose of mice to which glucose was not given (calibration group). ONE-WAY-ANOVA was used to compare significant difference between each group (Note: all the experimental methods for acute oral glucose tolerance test in the following activity examples are the same to the experimental method in Example 5, unless otherwise indicated). […]

The mark [3] stands for this setting: two weeks after the administration.

Take `O=C(O)C1O[C@@H](OC2C(O)[C@H](O)C(C(=O)O)O[C@H]2Oc2cc(O)c3c(=O)cc(-c4ccc(O)c(O)c4)oc3c2)C(O)C(O)[C@@H]1O` (stereo partly drawn) [Compound I, luteolin-7-O-[β-glucuronosyl(1→2)β-glucuronic acid]]: the “weight and diet of the mice” value in data set [1] was “did not significantly affect the weight and diet of the mice”. In data set [1] (setting [3]), the fasting blood glucose result is listed as “significantly decreased; also recorded: lowered fasting blood glucose of mice” and the instant blood glucose result was “significantly decreased; also recorded: lowered instant blood glucose of mice”. Also, the “acute oral glucose tolerance in db/db mice” value in data set [2] is recorded as “significantly enhances acute oral glucose tolerance”.
